# Laboratory results published in EP0309566B1, “STLV-III-RELATED POLYPEPTIDES, DIAGNOSTIC SYSTEMS AND ASSAY METHODS” (JOHNSON AND JOHNSON, priority 1987, dated 1994).
# Columns and labels:
# 24 sera = experiment: Comparison of peptide p80 based and peptide p81 based ELISA, 24 sera; assay type: binding; details: for Ratio p80:p81: absorbance value ratio
# Excerpt: The absorbance values obtained for each of 24 sera in a peptide p80 based ELISA were divided by those obtained in a peptide p81 based ELISA. The resulting absorbance value ratios are shown in ranked order in Table 14.
# [1] = test system: sera from Swedish blood donors negative for HIV-1 and HIV-2 antibodies; experiment: Specificity ELISA (Example 12, Figure 3), negative control sera; assay type: binding, human; details: 20 negative control sera; positive O.D. above 0.150
# Excerpt: In the Figures forming a portion of the disclosure of this invention: • Figure 1 illustrates a portion of the STLV-IIImac TMP amino acid residue sequence. The sequence is shown from left to right and in the direction of amino-terminus to carboxy-terminus in a single-letter code. The residue positions have been numbered as illustrated from 1-33. • Figure 2 illustrates, in a manner similar to Figure 1, a portion of the amino acid residue sequence of the HIV-1 TMP and represent gp41 amino acid residues […] as described in Ratner et al., Nature, 313:277-283 (1985). However, for ease of discussion, those residue positions have been renumbered as illustrated from 1-32. • Figure 3 contains 2 panels illustrating antibody determinations using a diagnostic system of this invention to assay (a) 20 sera from individuals in Guinea-Bissau previously determined to have antibodies against HIV-related viruses (West Africans), (b) 20 sera from HIV-1-infected individuals and (c) 20 sera from blood donors without antibodies to HIV-1 or HIV-2. Sera were considered positive (closed symbols) when they produced optical density (O.D.) values above 0.150 (the mean O.D. of negative samples plus 6 standard deviations). Negative sera are represented by open symbols. […]
# antibodies against HIV-2 = experiment: ELISA with STLV-III polypeptides p80 and p81, alone and in combination; assay type: binding, human; details: two sera containing high titers of antibodies against HIV-2, diluted 1:10; 490nm
# Method: Preliminary studies using two sera containing high titers of antibodies against HIV-2 were performed by ELISA using each of p80 and p81 alone and in combination. One hundred microliters (ul) of 0.01M NaHCO₃, pH 9.6, containing 1 microgram (ug) of either p80 or p81 or a combination (admixture) of 1 ug of p80 and 1 ug of p81 were admixed into the wells of Immunolon II microtiter plates (Dynatech, Alexandria, VA). The plates were then maintained for about 16 hours at 4 degrees C to permit the polypeptides to adsorb onto (coat) the walls of the wells. After removing the polypeptide coating solution by shaking, 300 ul of PBS containing 1% bovine serum albumin (BSA), 5mM benzamidine, 10 kilounits Aprotinin, 10ug/ml Trypsin Inhibitor, 10mM EACA, 0.5mM PMSF, 2mM EDTA and 10% glycerol were admixed into each well to block excess protein binding sites. […]
# Two hundred ul of OPD substrate were then admixed into each well to form a developing-reaction admixture. After maintaining the developing-reaction admixture for 30 minutes at about 20 degrees C, 50 ul of 4N H₂SO₄ were admixed into each well to stop the developing-reaction, and the resulting solutions were assayed for absorbance at 490nm using a microtiter plate reader.
sequence,measurement,setting,value
AIEKYLEDQAQLNAWCAFRQVC [p80],absorbance value,24 sera; Serum No. 3541,0.181
same,Ratio p80:p81,24 sera; Serum No. 3541,7.240
same,absorbance value,24 sera; Serum No. 3616,0.686
same,Ratio p80:p81,24 sera; Serum No. 3616,14.600
same,absorbance value,24 sera; Serum No. 3743,0.257
same,Ratio p80:p81,24 sera; Serum No. 3743,6.425
same,absorbance value,24 sera; Serum No. 3923,0.180
same,Ratio p80:p81,24 sera; Serum No. 3923,2.687
same,absorbance value,24 sera; Serum No. 3942,0.588
same,Ratio p80:p81,24 sera; Serum No. 3942,11.530
same,absorbance value,24 sera; Serum No. 5160,0.251
same,Ratio p80:p81,24 sera; Serum No. 5160,1.064
same,absorbance value,24 sera; Serum No. 5182,0.162
same,Ratio p80:p81,24 sera; Serum No. 5182,1.588
same,absorbance value,24 sera; Serum No. 5727,0.504
same,Ratio p80:p81,24 sera; Serum No. 5727,0.895
same,absorbance value,24 sera; Serum No. 5740,2.000
same,Ratio p80:p81,24 sera; Serum No. 5740,46.510
same,absorbance value,24 sera; Serum No. 6598,0.072
same,Ratio p80:p81,24 sera; Serum No. 6598,0.351
same,absorbance value,24 sera; Serum No. 6599,0.206
same,Ratio p80:p81,24 sera; Serum No. 6599,0.888
same,absorbance value,24 sera; Serum No. 6600,0.359
same,Ratio p80:p81,24 sera; Serum No. 6600,1.173
same,absorbance value,24 sera; Serum No. 6601,0.353
same,Ratio p80:p81,24 sera; Serum No. 6601,2.558
same,absorbance value,24 sera; Serum No. 6602,0.516
same,Ratio p80:p81,24 sera; Serum No. 6602,516.000
same,absorbance value,24 sera; Serum No. 6603,1.152
same,Ratio p80:p81,24 sera; Serum No. 6603,2.736
same,absorbance value,24 sera; Serum No. 6604,1.808
same,Ratio p80:p81,24 sera; Serum No. 6604,4.520
same,absorbance value,24 sera; Serum No. 6631,0.153
same,Ratio p80:p81,24 sera; Serum No. 6631,0.537
same,absorbance value,24 sera; Serum No. 6650,0.700
same,Ratio p80:p81,24 sera; Serum No. 6650,20.590
same,absorbance value,24 sera; Serum No. 6661,0.647
same,Ratio p80:p81,24 sera; Serum No. 6661,4.044
same,absorbance value,24 sera; Serum No. 6665,0.254
same,Ratio p80:p81,24 sera; Serum No. 6665,4.792
same,absorbance value,24 sera; Serum No. 6674,2.000
same,Ratio p80:p81,24 sera; Serum No. 6674,7.752
same,absorbance value,24 sera; Serum No. 6683,0.387
same,Ratio p80:p81,24 sera; Serum No. 6683,0.791
same,absorbance value,24 sera; Serum No. 6698,2.000
same,Ratio p80:p81,24 sera; Serum No. 6698,90.910
same,absorbance value,24 sera; Serum No. 6877,0.248
same,Ratio p80:p81,24 sera; Serum No. 6877,31.000
same,immunoreaction with sera,[1],did not produce any substantial immunoreaction
same,absorbance values,antibodies against HIV-2,greater than 1.1
